# Measurements from patent publication US20230241185A1, “COMPOSITION COMPRISING A DNA-DEGRADING ENZYME FOR USE IN A METHOD FOR THE TREATMENT OF IMMUNOSUPPRESSION AFTER ACUTE TISSUE INJURY” (Klinikum der Universität München, priority 2020, published 2023).
# “Also recorded” adds a separate entry of the source.
# Experiments:
# Format in all cases: in vivo, mice
# splenic CD3^+ T cells [1] = assay: Splenic T cell counts by FACS after experimental stroke; details: VX-765 100 mg kg^−1 i.p. 1 h prior to stroke vs vehicle; normalized to sham
# Excerpt: Mice were anaesthetized with isoflurane delivered in a mixture of 30% O2 and 70% N2O. An incision was made between the ear and the eye in order to expose the temporal bone. Mice were placed in supine position, and a laser Doppler probe was affixed to the skull above the middle cerebral artery (MCA) territory. The common carotid artery and left external carotid artery were exposed via midline incision and further isolated and ligated. A 2-mm silicon-coated filament (Doccol) was inserted into the internal carotid artery, advanced gently to the MCA until resistance was felt, and occlusion was confirmed by a corresponding decrease in blood flow (i.e., a decrease in the laser Doppler flow signal by 80%. After 60 minutes of occlusion, the animals were re-anesthetized, and the filament was removed. After recovery, the mice were kept in their home cage with ad libitum access to water and food. Sham-operated mice received the same surgical procedure, but the filament was […] in lieu of being advanced to the MCA. Body temperature was maintained at 37° C. throughout surgery in all mice via feedback-controlled heating pad. The overall mortality rate of animals subjected to MCA occlusion was approximately 20%. All animals in the sham group survived the procedure. Exclusion criteria: 1. Insufficient MCA occlusion (a reduction in blood flow to […] of the baseline value). 2. Death during the surgery. 3. Lack of brain ischemia as quantified post-mortem by histological analysis.
# Anti-IL1β: Mice received two injections of antagonizing anti-IL-1β in sterile saline (clone: B122, InVivoMab, BioXcell, US), 1 hour prior to and 1 hour after surgery. Anti-IL-1β or the corresponding IgG control (Armenian hamster IgG, InVivoMab, BioXcell, US) was injected i.p. at a dose of 4 mg kg^−1 body weight in a final volume of 200 μl.
# Anti-FasL: Mice received two injections of antagonizing anti-FasL in sterile saline (clone: MFL3, InVivoMab, BioXcell, US), 1 hour prior to and 1 hour after surgery. […]
# CD45^+ splenocytes [2] = assay: CD45+ splenocyte counts (spleen cellularity) by FACS after experimental stroke; details: VX-765 100 mg kg^−1 i.p. 1 h prior to stroke vs vehicle; normalized to sham
# Excerpt: (§1) Mice were anaesthetized with isoflurane delivered in a mixture of 30% O2 and 70% N2O. An incision was made between the ear and the eye in order to expose the temporal bone. Mice were placed in supine position, and a laser Doppler probe was affixed to the skull above the middle cerebral artery (MCA) territory. The common carotid artery and left external carotid artery were exposed via midline incision and further isolated and ligated. […] Lack of brain ischemia as quantified post-mortem by histological analysis. […]
# (§2) The anti-mouse antibodies listed below (see Table 1) were used for surface marker staining of CD45^+ leukocytes, CD45^+CD11b^+ monocytes (+FasL^+ expression), CD3^+ T cells, CD3^+CD4^+ Thelper cells, CD3^+CD8^+ Tcytotox cells and CD19^+ B cells (for representative gating strategy, see FIG. 10A). […] Flow cytometric data was acquired using a BD FACSverse flow cytometer (BD Biosciences) and analyzed using FlowJo software (Treestar).
# [3] = Infarct volumetry after stroke; details: VX-765 vs control treatment; 18 h after stroke
# Excerpt: as §1
# Mice were euthanized by overdose of ketamine-xylazine and perfused intracardially with normal saline. […] Infarct area of each section was assessed by ImageJ software (NIH). […] The total infarct volume was determined by integrating measured areas and distances between sections.
# splenic CD3^+ T cells [4] = assay: Splenic T cell counts by FACS after burn injury; details: VX-765 100 mg kg^−1 i.p. 1 h prior to burn injury vs vehicle; normalized to sham
# Protocol: (§3) Male C57Bl/6J mice (Charles River, Freiburg, Germany), aged 7-8 weeks, received a 35% total body surface area (TBSA) full thickness scald burn to the back through 10 seconds immersion in 98° C. water under deep anesthesia with 2% isoflurane and analgesia with 0.1 mg kg^−1 buprenorphine. Immediately after burn injury, the mice were resuscitated with 2 ml of lactated Ringer's solution (Baxter, Unterschleißheim, Germany) via i.p. injection as previously described (Hundeshagen et al., 2018; Bohannon et al., 2008; Toliver-Kinsky et al., 2005). Animals in the sham burn group were subjected to identical treatment except for water temperature during immersion being 36 C. Following burn injury or sham burn, mice were singly housed at room temperature (21° C.). […]
# as §2
# CD45^+ splenocytes [5] = assay: CD45+ splenocyte counts by FACS after burn injury; details: VX-765 100 mg kg^−1 i.p. 1 h prior to burn injury vs vehicle; normalized to sham
# Protocol: as §3, §2
# S. pneumoniae = assay: Post-stroke intranasal bacterial infection, CFU burden in trachea; details: VX765 vs control; 10^6 CFU S. pneumoniae intranasally 12 h after stroke; CFU 14 h later
# Excerpt: as §1
# S. pneumoniae TIGR4, an encapsulated strain of serotype 4, was grown overnight on Columbia blood agar plates (37° C., 5% CO2), single colonies were cultured in Todd-Hewitt broth with 1% yeast extract to mid-logarithmic phase (OD600 nm: 0.35), washed, and diluted in sterile PBS to the desired concentration. […] Serial dilutions of lung and tracheal tissue homogenates were plated onto blood agar plates and CFU were determined after 16 h of incubation.
# K. pneumoniae = assay: Post-stroke intranasal bacterial infection, CFU burden in lung; details: VX765 vs control; 2×10^5 CFU K. pneumoniae intranasally 12 h after stroke; CFU 14 h later
structure (smiles),measurement,setting,value
"CCO[C@@H]1OC(=O)C[C@@H]1NC(=O)[C@@H]1CCCN1C(=O)[C@@H](NC(=O)c1ccc(N)c(Cl)c1)C(C)(C)C [VX-765, Belnacasan]",splenic CD3+ T cell counts (survival),splenic CD3^+ T cells [1],improved T cell survival; also recorded: improved survival after VX-765 treatment compared to control
same,overall CD45+ splenocyte counts (spleen cellularity),CD45^+ splenocytes [2],improved T cell survival and spleen cellularity; also recorded: improved survival after VX-765 treatment compared to control
same,infarct volume (primary lesion size),[3],neither genetic nor pharmacological caspase-1 deficiency had a significant effect on the primary lesion size; also recorded: No significant difference in infarct volume between groups
same,splenic CD3+ T cell counts (survival),splenic CD3^+ T cells [4],improved T cell survival; also recorded: improved survival after VX-765 treatment compared to control
same,overall CD45+ splenocyte counts (spleen cellularity),CD45^+ splenocytes [5],improved T cell survival and spleen cellularity; also recorded: improved survival after VX-765 treatment compared to control
same,bacterial load (CFU) in trachea,S. pneumoniae,reduced post-injury bacterial load comparable to sham-operated group
same,bacterial load (CFU) in lung,K. pneumoniae,reduced post-injury bacterial load comparable to sham-operated group
